Test system: MdFRK1
Experiment: coupled spectrophotometric assay (phosphoglucoisomerase / G6P dehydrogenase), […] nm
Assay type: biochemical, Malus domestica
Conditions: 50 mM Tris-HCl pH 8.0, 4 mM MgCl2, 2.5 mM ATP; substrate inhibition above 2 mM fructose

- Km: 620 µM
Compound: OCC1(O)OC[C@@H](O)[C@@H](O)[C@@H]1O (stereo partly shown) [fructose]

Reference: publication PMC6269498, “Increased activity of MdFRK2, a high-affinity fructokinase, leads to upregulation of sorbitol metabolism and downregulation of sucrose metabolism in apple leaves” (Horticulture Research, 2018)
